Where two headings read alike, the source gives them in different places.
Legend:
[1] = target: recombinant human Mcl-1 (residues 171-327) / Bim interaction (Homo sapiens (Human), UniProt Q07820); experiment: biochemical; type: binding; details: read-out: Mcl-1 HTRF IC50
[2] = tested on: human multiple myeloma cell line, OPM-2; experiment: Cell viability assay (OPM-2 10 FBS), CellTiter-Glo; type: cell-based
In short: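 Cells were seeded at 3000 cells/well in RPMI 1640 with 10% FBS and exposed to serially diluted compounds for 16 h at 37 °C, 5% CO2.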

[3] = 0.1 nM Mcl-1(171-327), 0.05 nM biotin-Bim (51-76)
[4] = Homo sapiens, OPM-2, 16 h, read-out: OPM-2 10% FBS IC50 IP, OPM-2 cells, 10% FBS, 16 h incubation
[5] = TR-FRET, Mcl-1(171-327) / biotin-Bim (51-76)
[6] = read-out: OPM-2 10% FBS IC50 IP, OPM-2 cells, 10% FBS, 16 h, CellTiter-Glo
[7] = Homo sapiens, OPM-2, 16 h, read-out: OPM-2 10% FBS IC50 IP, OPM-2 cells, 10% FBS, 16 h, CellTiter-Glo

Chain of recombinant human Mcl-1 (residues 171-327) / Bim interaction (Q07820 171-327): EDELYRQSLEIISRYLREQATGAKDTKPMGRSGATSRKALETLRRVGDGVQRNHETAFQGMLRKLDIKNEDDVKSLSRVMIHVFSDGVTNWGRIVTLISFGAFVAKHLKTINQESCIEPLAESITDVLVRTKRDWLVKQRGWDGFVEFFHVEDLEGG

SMILES | IC50 [1, 5] | IC50 [2, 7] | other results
CO[C@@]1(CN2CC3(COC3)C2)/C=C/C[C@H](C)[C@@H](C)S(=O)(=O)NC(=O)c2ccc3c(c2)N(C[C@@H]2CC[C@H]21)C[C@@]1(CCCc2cc(Cl)ccc21)CO3 [Example 203, (1S,3′R,6′R,7′S,8′E,11′S,12′R)-6-chloro-7′-methoxy-11′,12′-dimethyl-7′-(2-oxa-6-azaspiro[3.3]hept-6-ylmethyl)-3,4-dihydro-2H,15′H-spiro[naphthalene-1,22′-[20]oxa[13]thia[1,14]diazatetracyclo [14.7.2.0~3,6~.0~19,24~]pentacosa[8,16,18,24]tetraen]-15′-one 13′,13′-dioxide] | – | – | IC50 [1, 3]: 0.113 nM; IC50 [2, 4]: 112 nM
C[C@@H]1[C@@H](C)CCC[C@@](O)(Cc2nccs2)[C@@H]2CC[C@H]2CN2C[C@@]3(CCCc4cc(Cl)ccc43)COc3ccc(cc32)C(=O)NS1(=O)=O (single isomer, unassigned) [Example 100250] | 0.136 nM | – | IC50 [2, 6]: 82 nM
CO[C@]1(C=O)/C=C/C[C@H](C)[C@@H](Cc2ccccc2)S(=O)(=O)NC(=O)c2ccc3c(c2)N(C[C@@H]2CC[C@H]21)C[C@@]1(CCCc2cc(Cl)ccc21)CO3 (single isomer, unassigned) [Example 100575] | 1.3 nM | 2500 nM | –
C[C@@H]1[C@@H](C)C/C=C/[C@](O)(C(F)(F)C(=O)N(C)C)[C@@H]2CC[C@H]2CN2C[C@@]3(CCCc4cc(Cl)ccc43)COc3ccc(cc32)C(=O)NS1(=O)=O [Example 100413, 2-((1S,3′R,6′R,7′R,8′E,11′S,12′R)-6-chloro-7′-hydroxy-11′,12′-dimethyl-13′,13′-dioxido-15′-oxo-3,4-dihydro-2H-spiro[naphthalene-1,22′-[20]oxa[13]thia[1,14]diazatetracyclo [14.7.2.0~3,6~.0~19,24~]pentacosa[8,16,18,24]tetraen]-7′-yl)-2,2-difluoro-N,N-dimethylacetamide] | 0.228 nM | 556 nM | –
COCC[C@]1(OC)/C=C/C[C@H](C)[C@@H](C)S(=O)(=O)NC(=O)c2ccc3c(c2)N(C[C@@H]2CC[C@H]21)C[C@@]1(CCCc2cc(Cl)ccc21)CO3 [Example 100369, (1S,3′R,6′R,7′S,8′E,11′S,12′R)-6-chloro-7′-methoxy-7′-(2-methoxyethyl)-11′,12′-dimethyl-3,4-dihydro-2H,15′H-spiro[naphthalene-1,22′-[20]oxa[13]thia[1,14]diazatetracyclo [14.7.2.0~3,6~.0~19,24~]pentacosa[8,16,18,24]tetraen]-15′-one 13′,13′-dioxide] | 2.83 nM | 9920 nM | –
CC(C)CO[C@]1(CN2CCN3CCOC[C@@H]3C2)/C=C/C[C@H](C)[C@@H](C)S(=O)(=O)NC(=O)c2ccc3c(c2)N(C[C@@H]2CC[C@H]21)C[C@@]1(CCCc2cc(Cl)ccc21)CO3 [Example 356, (1S,3′R,6′R,7′R,8′E,11′S,12′R)-6-chloro-7′-((9aS)-hexahydropyrazino[2,1-c][1,4]oxazin-8(1H)-ylmethyl)-11′,12′-dimethyl-7′-(2-methylpropoxy)-3,4-dihydro-2H,15′H-spiro[naphthalene-1,22′-[20]oxa[13]thia[1,14]diazatetracyclo [14.7.2.0~3,6~.0~19,24~]pentacosa[8,16,18,24]tetraen]-15′-one 13′,13′-dioxide] | – | – | IC50 [1, 3]: 0.11 nM; IC50 [2, 4]: 367 nM
CCN(CC)C(=O)C[C@]1(O)CCC[C@H](C)[C@@H](C)S(=O)(=O)NC(=O)c2ccc3c(c2)N(C[C@@H]2CC[C@H]21)C[C@@]1(CCCc2cc(Cl)ccc21)CO3 [Example 100112, 2-((1S,3′R,6′R,7′R,11′S,12′R)-6-chloro-7′-hydroxy-11′,12′-dimethyl-13′,13′-dioxido-15′-oxo-3,4-dihydro-2H-spiro[naphthalene-1,22′-[20]oxa[13]thia[1,14]diazatetracyclo [14.7.2.0~3,6~.0~19,24~]pentacosa[16,18,24]trien]-7′-yl)-N,N-diethylacetamide] | – | – | IC50 [1]: 1.29 nM; IC50 [2, 6]: 1800 nM
